Source: the NIST ThermoML archive (doi:10.1016/j.fluid.2007.08.013)
Values joined by “and” are separate entries in the source; they are usually repeats but may differ in a detail not shown here. Identical values can stand only once. Numbers after ± are expanded uncertainties.

Test: activity coefficient (dimensionless); of the first substance listed, at infinite dilution; xn = mol fraction of the nth substance listed
Details: Liquid, x1 = 0

COCCOC [1,2-dimethoxyethane] + O
Details | activity coefficient
318.15 K, Chromatography | 7.25 ± 0.49
328.15 K, non steady state GLC | 9.12 and 8.81
338.15 K, non steady state GLC | 11.2 and 11.1
348.15 K, Rayleigh distillation | 12.2 ± 0.7
372.5 K, circulation still | 14.9 ± 0.9

C1COCO1 [1,3-dioxolane] + O
Details | activity coefficient
273.35 K, relative headspace analysis | 8.13 ± 0.49
278.15 K, relative headspace analysis | 8.48 ± 0.51
288.15 K, relative headspace analysis | 9.12 ± 0.55
298.15 K, relative headspace analysis | 9.71 ± 0.58
308.15 K, relative headspace analysis | 10.2 ± 0.6
318.15 K, Chromatography | 10.6 ± 0.7
328.15 K, Chromatography | 10.9 ± 0.7
338.15 K, non steady state GLC | 11 and 11.4
348.15 K, Rayleigh distillation | 11.3 ± 0.7
372.55 K, circulation still | 11.2 ± 0.7

C1COCCO1 [1,4-dioxane] + O
Details | activity coefficient
273.35 K, relative headspace analysis | 3.53 ± 0.21
278.15 K, relative headspace analysis | 4 ± 0.24
288.15 K, headspace analysis | 5.17 ± 0.31
288.15 K, relative headspace analysis | 4.75 ± 0.29
298.15 K, headspace analysis | 5.88 ± 0.35
308.15 K, headspace analysis | 6.7 ± 0.4
308.15 K, relative headspace analysis | 6.15 ± 0.37
318.15 K, relative headspace analysis | 6.82 ± 0.41
328.15 K, non steady state GLC | 7.76 ± 0.47
338.15 K, Chromatography | 8.22 ± 0.56
338.15 K, non steady state GLC | 8.27 ± 0.5
348.15 K, rayleigh distillation | 8.43 ± 0.51
372.5 K, circulation still | 10.3 ± 0.6

CCOCC [diethyl ether] + O
Chromatography
Details | activity coefficient
273.35 K | 33.9 ± 2.3
278.15 K | 41.2 ± 2.8
283.15 K | 49.4 ± 3.4
288.15 K | 58.5 ± 4
293.15 K | 68.6 ± 4.7
298.15 K | 77.1 ± 5.3
303.15 K | 88.8 ± 6.1
308.15 K | 98.8 ± 6.8
318.15 K | 121 ± 8.3
328.15 K | 140 ± 9.6

COCOC [dimethoxymethane] + O
Chromatography
Details | activity coefficient
273.35 K | 10.8 ± 0.7
283.15 K | 13.7 ± 0.9
293.15 K | 15.6 ± 1.1
298.15 K | 16.9 ± 1.2
303.15 K | 18 ± 1.2
313.15 K | 19.9 ± 1.4
323.15 K | 22 ± 1.5
333.15 K | 23.9 ± 1.6

C1CCOC1 [tetrahydrofuran] + O
Details | activity coefficient
273.35 K, classical headspace analysis | 9.74 ± 0.58
278.15 K, classical headspace analysis | 11.1 ± 0.7
288.15 K, Chromatography | 14.3 ± 1
298.15 K, Chromatography | 17.6 ± 1.2
308.15 K, Chromatography | 20.6 ± 1.4
318.15 K, Chromatography | 24 ± 1.6
328.15 K, non steady state GLC | 26.8 and 28.1

C1CCOCC1 [tetrahydropyran] + O
activity coefficient
Details | 273.35 K | 283.15 K | 288.15 K | 298.15 K | 308.15 K | 318.15 K | 328.15 K
Chromatography | – | – | 58 ± 4 | 70.5 ± 4.8 | 83.4 ± 5.7 | 96.2 ± 6.6 | 108 ± 7.4
relative headspace analysis | 39.6 ± 2.4 | 44.9 ± 2.7 | – | – | – | – | –
